Results on 1 molecule are retold here after patent US20090060928A1, “Topical Toll Like Receptor Ligands as Vaccine Adjuvants” (priority 2006, published 2009).

One data set deals with anti-OVA IgG antibodies. The data set can be described thus: Anti-OVA antibodies in serum by ELISA after sc OVA immunization with adjuvant. The data set is classed as in vivo, C57BI/6 mice. An excerpt: Fig. A: Groups of mice were immunized to OVA alone or followed by topical application of imiquimod to the site of immunization 3×/wk. or to OVA in ILK-2 liposomes. One week following 4 weekly immunizations, sera was collected and tested for anti-OVA IgG antibodies by ELISA. Anti-OVA IgG responses was greater in mice treated with imiquimod than in those immunized to OVA alone. It was as strong as that induced by IL-2 liposomes as the adjuvant. Fig. B: One week following 4 weekly immunizations, IgG1, IgG2a, IgG2b, and IgG3 anti-OVA antibodies was measured in these groups by ELISA, using subclass specific antibodies as probes.
(§1) FIG. 3A: Groups of mice were immunized to OVA alone or followed by topical application of imiquimod to the site of immunization 1×/wk. or to a site distal to the immunization. One week following 4 weekly immunizations, sera was collected and tested for anti-OVA IgG subclass antibodies by ELISA. Anti-OVA IgG responses was greater in mice treated with imiquimod both locally and distally than in those immunized to OVA alone. FIG. 3B: Triplicate mice were sacrificed 1 week after 4 immunizations and cellular immune responses to OVA-expressing target E.G7-OVA cells determined by ELIspot assay
(§2) In more detail, groups of 10 C57BI/6 mice were immunized sc weekly×4 to 0.1 mg of ovalbumin (OVA). Some groups were in addition treated with 5% imiquimod cream applied topically to the immunization site once or 3×/week. Control groups were immunized to PBS, to OVA encapsulated into IL-2 liposomes (which we have previously shown is one of the strongest adjvuanrts available), or to irradiated E.G7-OVA cells (a powerful stimulator of anti-OVA T-cell responses). Serum was collected from each mouse at baseline and following the 4th immunization, pooled by immunization group, and assayed for antibodies to OVA by ELISA.
In these experiments, groups of […] mice were immunized sc weekly×4 to 0.1 mg of ovalbumin (OVA) given in 0.1 ml of PBS injected in the lower abdominal region. One group of mice was also treated with 5% imiquimod applied topically to the skin at a site distal (in the nape of the neck) to the immunization site 1×/week.

The subject of another data set is E.G7-OVA cells. The data set can be described thus: ELISPOT (gamma-interferon release) of spleen cells for T-cell response to OVA positive target cells. The data set is classed as in vivo, C57BI/6 mice. As to conditions: for cellular response to OVA by ELISPOT: FIG. 3B; for T-cell (cellular) response by ELISPOT: FIG. 2A.
Source text: FIG. 1A: Mice were immunized to OVA with or without topical application of imiquimod treatment 1× or 3×/wk following each immunization. Spleen cells were collected from each group 1 week following 4 immunizations, and tested by ELISPOT (based on gamma-interferon release) for T-cell response to OVA positive target cells (E.G7-OVA). FIG. 2B Mice were immunized to OVA with topical application of imiquimod 3×/week or with OVA encapsulated into IL-2 liposomes. Imiquimod boosted T-cell responses more strongly than IL-2 liposomes.
as §1, §2
Imiquimod boosted in particular Ig2a and IgG2b responses which were almost undetectable in mice immunized to OVA alone (see FIG. 1 B). This is consistent with the known capacity of this agent to preferentially boost Th1 responses. […] No T-cell responses were detectable in mice immunized similarly to OVA alone.
By contrast, no significant T-cell responses above PBS controls were detectable in mice immunized similarly to OVA alone. We have not studied the adjuvant activity of other TLR receptor ligands such as resiquimod and CpG ODN applied topically away from the immunization site. […] Thus, it is reasonable to expect that all of these will also retain adjuvant activity when applied topically directly over, or away, from the immunization site. Because their specific mechanism of action differs from that of imiquimod, they may have stronger adjuvant activity or may be better able to enhance specific type of immune responses than imiquimod. Combinations of TLR ligands may be able to enhance stronger or broader type of immune response than any one individual TLR ligand alone. This invention is intended to cover these different possibilities.

Data set [1] in a line: Local toxicity of the adjuvant. As to conditions: adjuvant with sc OVA immunization. The data set is classed as in vivo.
A further data set relates to OVA positive tumor cells. The data set can be described thus: Vaccine-induced tumor protective immunity against lethal challenge. The data set is classed as in vivo, mice. As to conditions: 5% cream topically over site of sc OVA immunization. The source says:
Importantly, the potency of imiquimod was as great as that of the strongest adjuvant we have studied to date in mice but with less local toxicity.

[2] abbreviates: topical imiquimod at immunization site, vs OVA only, FIG. 1B.

`CC(C)Cn1cnc2c(N)nc3ccccc3c21` [imiquimod]: the “overall IgG anti-OVA antibody response” value in the data set with anti-OVA IgG antibodies (OVA 0.1 mg sc weekly x4 + topical imiquimod at immunization site 3x/wk, vs OVA alone, FIG. 1A) was “considerably greater”. Also, in the data set on anti-OVA IgG antibodies (distal imiquimod treatment), the “IgG2a titer, times stronger than OVA alone” value is 25 times and the “IgG2b titer, stronger than OVA alone” value was found to be 125. Further, in the data set with anti-OVA IgG antibodies (local imiquimod treatment), the “IgG2a titer, times stronger than OVA alone” value stood at 125 times and the “IgG2b titer, stronger than OVA alone” value is 125. Also, in the data set with anti-OVA IgG antibodies (setting [2]), the “IgG1 anti-OVA antibody response” value was “reduced”, the “IgG2a anti-OVA antibody response” value was “markedly boosted” and the “IgG2b anti-OVA antibody response” value is listed as “markedly boosted”. For the same molecule, the “anti-OVA IgG subclass response” value in the data set with anti-OVA IgG antibodies (topical imiquimod both local and distal to vaccine injection site, vs OVA alone, FIG. 3A) is “considerably greater”. For the same molecule, the “cellular response to OVA by ELISPOT” value in the data set with E.G7-OVA cells (distal application of imiquimod) is reported as “strong cellular responses”. The “T-cell (cellular) response by ELISPOT” value in the data set with E.G7-OVA cells (imiquimod applied to immunization site 1x/wk following each immunization) was “slight response”. In addition, in the data set on E.G7-OVA cells (imiquimod applied to immunization site 3x/week), the “T-cell (cellular) response by ELISPOT” value is given as “very strong response”. Moreover, the “cellular response to OVA by ELISPOT” value in the data set on E.G7-OVA cells (local application of imiquimod) was “strong cellular responses”. For the same molecule, in the data set on E.G7-OVA cells (topical imiquimod 3x/week vs OVA in IL-2 liposomes, FIG. 2B), the “T-cell response compared with IL-2 liposomes” value was “more potent stimulator of T-cell responses than IL-2 liposomes”. In addition, in data set [1], the local toxicity result was “no toxicity at all”. Further, the “vaccine-induced tumor protective immunity” value with OVA positive tumor cells was “markedly increased”.
